Measured values taken from patent publication US10925858B2, “S-nitrosoglutathione (GSNO) and GSNO reductase inhibitors for use in therapy” (MUSC FOUNDATION FOR RESEARCH DEVELOPMENT, priority 2017, dated 2021).

Columns and labels:
[1] = test system: diabetic mice; assay: Radial arm maze in STZ induced diabetic mice; format: in vivo
Method: Male laca mice weighing between 28-32 g were procured from the Central Animal House, Panjab University, Chandigarh. The animals were acclimatized and were fed with standard pellet diet and water ad libitum. The experimental protocols were approved by the Institutional Ethics Committee and were conducted according to Indian National Science Academy (INSA) guidelines for the use and care of experimental animals. The animals were divided into four groups: (i) Control animals received phosphate buffered saline (PBS) throughout the study; (ii) Control+GSNO animals were administered with GSNO 100 μg/kg body weight orally, dissolved in PBS after every 24 h for 8 weeks; (iii) Diabetic animals were injected with STZ at a dose of 40 mg/kg body weight intraperitoneally for 5 days dissolved in 0.1 mol/L citrate buffer, pH 4.5 and Diabetic+GSNO mice were administered GSNO 100 μg/kg body weight orally dissolved in PBS after every 24 h for 8 weeks after the induction of diabetes. Animals were assessed weekly for development of diabetic encephalopathy in terms of memory deficits. All experimental procedures were done on mice at the end of study. Radial arm maze was used to assess specific learning and memory in the radial arm maze (Veena et al., 2009). Its apparatus consisted of equally spaced arms (35×9×5 cm) radiating from an octagonal central platform, and the maze was kept 80 cm elevated from the ground. Prior to the acquisition, all the arms were baited and mice were allowed to explore the maze for 10 min and were subjected to two such acclimatization sessions on consecutive days. […] An arm choice was recorded when the animal reached the end of an arm. An arm entry was counted when all four paws entered the arm. […] After acquisition period, animals were evaluated for retention of the task. […] The data were analyzed for the number of reference memory errors (exploring an arm never baited), working memory errors (exploring a baited arm already visited), total number of errors, memory retention and % correct choice.

[2] = test system: protein-associated 3-nitrotyrosine; assay: Assay for protein-associated nitrotyrosine in hBMVECs; format: cell-based, human; conditions: thrombin 0.1 unit/ml 20 min; L-NIO or FeTPPS 10 μM pretreated 30 min; ELISA
Method: Cell culture: Primary human brain microvascular endothelial cells (hBMVECs) were purchased from Angio-Proteomie (Cat #: cAP-0002, Atlanta, Ga.). The cells were cultured in cell culture flasks or plates precoated with Quick Coating Solution (Angio-Proteomie; Cat #: cAP-01) and maintained in Endothelial Growth Medium (Angio-Proteomie; Cat #: cAP-02) at 37° C. under 5% CO2/95% air. When the cells were almost confluent, the medium was replaced with endothelial basal medium (Angio-Proteomie; Cat #: cAP-03) containing 0.5% fetal bovine serum (FBS; Life Technologies, Grand Island, N.Y.) about 8-12 hours before the experiment. No institutional approval was required for this study. The study was not pre-registered.
Cellular levels of protein-associated 3-nitrotyrosine were analyzed by ELISA Kit (Abeam, Cat #: ab116691) and Western blot analysis using antibody specific to 3-nitrotyrosine (Abeam, Cat #: ab61392). For the ELISA, hBMVECs were lysed in extraction buffer provided with the kit followed by centrifugation at 16,000×g 4° C. The cell lysate supernatants were subjected to protein quantification with Bio-Rad DC protein assay kit (Bio-Rad, Hercules, Calif.) and the equal amounts of proteins (500 μg) were loaded onto 96 well microplate coated with 3-nitrotyrosine capture antibody and followed by incubation with biotin-conjugated 3-nitrotyrosine detector antibody. Following washing, the plates were incubated with HRP-conjugated streptoavidin and the levels of 3-nitrotyrosine were measured by incubation with 3,3′,5,5′-tetramethylbenzidine solution and colorimetric analysis at […] using SpectraMax 190 Microplate Reader (Molecular Devices, Sunnyvale, Calif.). For analysis of degree of RhoA tyrosine nitration, the cell lysates were immunoprecipiated with antibody specific to 3-nitrotyrosine (Abeam) and the levels of tyrosine nitrated RhoA were analyzed by Western analysis for RhoA.

[3] = diabetic mice, GSNO 100 μg/kg body weight orally daily for 8 weeks, vs diabetic group

| Structure (SMILES) | increase in the percentage of correct choices [1, 3] [%] | lowered number of errors [1, 3] [%] | radial arm maze parameters of GSNO-treated control mice ([1]; non-diabetic control mice, GSNO 100 μg/kg orally for 8 weeks, vs control mice) | thrombin-induced 3-nitrotyrosine levels [2] |
| --- | --- | --- | --- | --- |
| N[C@@H](CCC(=O)N[C@@H](CSN=O)C(=O)NCC(=O)O)C(=O)O [GSNO, S-nitrosoglutathione] | 30 | 44 | not significantly different from control mice |  |
| Cl.O=S(=O)([O-])c1ccc(-c2c3nc(c(-c4ccc(S(=O)(=O)O)cc4)c4ccc([nH]4)c(-c4ccc(S(=O)(=O)O)cc4)c4nc(c(-c5ccc(S(=O)(=O)O)cc5)c5ccc2[nH]5)C=C4)C=C3)cc1.[Fe] [FeTPPS, 5,10,15,20-Tetrakis(4-sulfonatophenyl)porphyrinato Iron (III), Cl, reference compound] |  |  |  | inhibited |
